According to patent US8846933B2, “N-link hydroxamic acid derivatives useful as antibacterial agents” (Pfizer Inc., priority 2009, dated 2014):

Assays:
[1] = test system: Escherichia coli EC-1: VOGEL, mouse virulent; experiment: MIC determination (CLSI), strain EC-1; type: cell-based; details: strain EC-1, unit assumed
Procedure: (§1) The in vitro antibacterial activity of compounds described in the Examples was evaluated by minimum inhibitory concentration (MIC) testing according to Clinical and Laboratory Standards Institute (CLSI, formerly NCCLS) guidelines. See: Clinical and Laboratory Standards Institute. Methods for Dilution Antimicrobial Susceptibility Tests for Bacteria that Grow Aerobically; Approved Standard-Seventh Edition. CLSI document M7-A7 [ISBN 1-56238-587-9]. Clinical and Laboratory Standards Institute, 940 West Valley Road, Suite 1400, Wayne, Pa. 19087-1898 USA, 2006; also Clinical and Laboratory Standards Institute. Performance Standards for Antimicrobial Susceptibility Testing; Eighteenth Informational Supplement. CLSI document M100-S18 [ISBN1-56238-653-0].Clinical and Laboratory Standards Institute.
(§2) The following bacterial strains were used in these MIC determinations:
3) Escherichia coli EC-1: VOGEL, mouse virulent labeled as EC-1 in Tables 4 and 5;

[2] = test system: Pseudomonas aeruginosa UI-18: Wild-type (PA-7); experiment: MIC determination (CLSI), strain PA-7; type: cell-based; details: strain PA-7, unit assumed
Procedure: as §1, §2
1) Pseudomonas aeruginosa UI-18: Wild-type, labeled as PA-7 in Tables 4, and 5;

[3] = generated in the same manner as in Table 4

Compound	EC-1 (MIC) [1]	PA-7 (MIC) [2]	EC-1 (MIC) [1, 3]	PA-7 (MIC) [2, 3]
CC(CCn1ccc(-c2ccc3[nH]cc(CCO)c3c2)cc1=O)(C(=O)NO)S(C)(=O)=O (stereo not drawn) [Example 263, N-hydroxy-4-{4-[3-(2-hydroxyethyl)-1H-indol-5-yl]-2-oxopyridin-1(2H)-yl}-2-methyl-2-(methylsulfonyl)butanamide]	8 µg/mL	> 64 µg/mL		
C[C@@](CCn1ccc(-c2ccc(-n3ccnn3)cc2)cc1=O)(C(=O)NO)S(C)(=O)=O [Example 364, (2R)-N-hydroxy-2-methyl-2-(methylsulfonyl)-4-{2-oxo-4-[4-(1H-1,2,3-triazol-1-yl)phenyl]pyridin-1(2H)-yl}butanamide]	16 µg/mL	16 µg/mL		
C[C@@](CCn1ccc(-c2ccc(C(F)(F)F)nc2)cc1=O)(C(=O)NO)S(C)(=O)=O [Example 331]	0.25 µg/mL	32 µg/mL		
CC(CCn1ccc(-c2ccc(OCCCN3CCOCC3)cc2F)cc1=O)(C(=O)NO)S(C)(=O)=O (stereo not drawn) [Example 226, 4-{4-[2-fluoro-4-(3-morpholin-4-ylpropoxy)phenyl]-2-oxopyridin-1(2H)-yl}-N-hydroxy-2-methyl-2-(methylsulfonyl)butanamide]	2 µg/mL	8 µg/mL		
Cn1ccnc1-c1ccc(-c2ccn(CC[C@](C)(C(=O)NO)S(C)(=O)=O)c(=O)c2)cc1 [Example 363, (2R)-N-hydroxy-2-methyl-4-{4-[4-(1-methyl-1H-imidazol-2-yl)phenyl]-2-oxopyridin-1(2H)-yl}-2-(methylsulfonyl)butanamide]	32 µg/mL	64 µg/mL		
Cc1c(-c2ccc(F)cc2)ccn(CC[C@](C)(C(=O)NO)S(C)(=O)=O)c1=O [Example 395, (2R)-4-[4-(4-fluorophenyl)-3-methyl-2-oxopyridin-1(2H)-yl]-N-hydroxy-2-methyl-2-(methylsulfonyl)butanamide]	1 µg/mL	2 µg/mL		
CCCCc1ccc(-c2ccn(CCC(C)(C(=O)NO)S(C)(=O)=O)c(=O)c2)cc1 (stereo not drawn) [Example 199, 4-[4-(4-butylphenyl)-2-oxopyridin-1(2H)-yl]-N-hydroxy-2-methyl-2-(methylsulfonyl)butanamide]	0.125 µg/mL	2 µg/mL		
Cc1cnc(-c2ccc(-c3ccn(CC[C@](C)(C(=O)NO)S(C)(=O)=O)c(=O)c3)cc2)nc1 [Example 461]	0.125 µg/mL	1 µg/mL		
CC(CCn1ccc(-c2ccccc2F)cc1=O)(C(=O)NO)S(C)(=O)=O (stereo not drawn) [Example 159, 4-[4-(2-fluorophenyl)-2-oxopyridin-1(2H)-yl]-N-hydroxy-2-methyl-2-(methylsulfonyl)butanamide]			2 µg/mL	2 µg/mL
C[C@@](CCn1ccc(-c2ccc(-c3cnco3)cc2)cc1=O)(C(=O)NO)S(C)(=O)=O [Example 340, (2R)-N-hydroxy-2-methyl-2-(methylsulfonyl)-4-{4-[4-(1,3-oxazol-5-yl)phenyl]-2-oxopyridin-1(2H)-yl}butanamide]	0.25 µg/mL	1 µg/mL		
CC(=O)c1ccccc1-c1ccn(CCC(C)(C(=O)NO)S(C)(=O)=O)c(=O)c1 (stereo not drawn) [Example 140, 4-[4-(2-acetylphenyl)-2-oxopyridin-1(2H)-yl]-N-hydroxy-2-methyl-2-(methylsulfonyl)butanamide]			> 64 µg/mL	> 64 µg/mL
C[C@@](CCn1ccc(-c2ccc(-n3ncc(O)n3)cc2)cc1=O)(C(=O)NO)S(C)(=O)=O [Example 407, (2R)-N-hydroxy-4-{4-[4-(4-hydroxy-2H-1,2,3-triazol-2-yl)phenyl]-2-oxopyridin-1(2H)-yl}-2-methyl-2-(methylsulfonyl)butanamide]	16 µg/mL	32 µg/mL		
C[C@@](CCn1ccc(-c2ccc(OCCN3CCC(O)CC3)c(Cl)c2Cl)cc1=O)(C(=O)NO)S(C)(=O)=O [Example 303, (2R)-4-[4-{2,3-dichloro-4-[2-(4-hydroxypiperidin-1-yl)ethoxy]phenyl}-2-oxopyridin-1(2H)-yl]-N-hydroxy-2-methyl-2-(methylsulfonyl)butanamide]	32 µg/mL	16 µg/mL		
CCCc1ccc(-c2ccn(CC[C@](C)(C(=O)NO)S(C)(=O)=O)c(=O)c2)cc1 [Example 465, (2R)-N-hydroxy-2-methyl-2-(methylsulfonyl)-4-[2-oxo-4-(4-propylphenyl)pyridin-1(2H)-yl]butanamide]	0.125 µg/mL	0.5 µg/mL		
CN(C)c1ccc(-c2ccn(CCC(C)(C(=O)NO)S(C)(=O)=O)c(=O)c2)cn1 (stereo not drawn) [Example 116, 4-[6-(dimethylamino)-2′-oxo-3,4′-bipyridin-1′(2′H)-yl]-N-hydroxy-2-methyl-2-(methylsulfonyl)butanamide]			16 µg/mL	64 µg/mL
CC(CCn1ccc(-c2cccc(C#N)c2)cc1=O)(C(=O)NO)S(C)(=O)=O (stereo not drawn) [Example 169, 4-[4-(3-cyanophenyl)-2-oxopyridin-1(2H)-yl]-N-hydroxy-2-methyl-2-(methylsulfonyl)butanamide]			> 64 µg/mL	64 µg/mL
Cc1cnc(N2CC=C(c3ccn(CC[C@](C)(C(=O)NO)S(C)(=O)=O)c(=O)c3)CC2)nc1 [Example 420, (2R)-N-hydroxy-2-methyl-4-[1′-(5-methylpyrimidin-2-yl)-2-oxo-1′,2′,3′,6′-tetrahydro-4,4′-bipyridin-1(2H)-yl]-2-(methylsulfonyl)butanamide]	4 µg/mL	8 µg/mL		
CC(CCn1ccc(-c2ccc(OCCCCO)cc2)cc1=O)(C(=O)NO)S(C)(=O)=O (stereo not drawn) [Example 75, N-hydroxy-4-{4-[4-(4-hydroxybutoxy)phenyl]-2-oxopyridin-1(2H)-yl}-2-methyl-2-(methylsulfonyl)butanamide]			2 µg/mL	4 µg/mL
CC(CCn1ccc(-c2cc(Cl)c(OCCO)cc2Cl)cc1=O)(C(=O)NO)S(C)(=O)=O (stereo not drawn) [Example 244, 4-{4-[2,5-dichloro-4-(2-hydroxyethoxy)phenyl]-2-oxopyridin-1(2H)-yl}-N-hydroxy-2-methyl-2-(methylsulfonyl)butanamide]	32 µg/mL	> 64 µg/mL		
CCOc1ccc(-c2ccn(CC[C@](C)(C(=O)NO)S(C)(=O)=O)c(=O)c2)cc1 [Example 332, (2R)-4-[4-(4-ethoxyphenyl)-2-oxopyridin-1(2H)-yl]-N-hydroxy-2-methyl-2-(methylsulfonyl)butanamide]	64 µg/mL	0.5 µg/mL		
CC1CC(=O)Nc2ccc(-c3ccn(CCC(C)(C(=O)NO)S(C)(=O)=O)c(=O)c3)cc21 (mixture of isomers) [Example 484]	> 64 µg/mL	> 64 µg/mL		
CC(CCn1ccc(-c2ccc(OCC3CCCO3)cc2)cc1=O)(C(=O)NO)S(C)(=O)=O (mixture of isomers) [Example 462]	0.5 µg/mL	1 µg/mL		
Cc1cnn(-c2ccc(-c3ccn(CCC(C)(C(=O)NO)S(C)(=O)=O)c(=O)c3)cc2)n1 (stereo not drawn) [Example 455]	0.06 µg/mL	1 µg/mL		
Cn1c(C#N)ccc1-c1ccn(CCC(C)(C(=O)NO)S(C)(=O)=O)c(=O)c1 (stereo not drawn) [Example 194, 4-[4-(5-cyano-1-methyl-1H-pyrrol-2-yl)-2-oxopyridin-1(2H)-yl]-N-hydroxy-2-methyl-2-(methylsulfonyl)butanamide]	> 64 µg/mL	> 64 µg/mL		
CC(CCn1ccc(-c2ccc(OCCCO)c(Cl)c2)cc1=O)(C(=O)NO)S(C)(=O)=O (stereo not drawn) [Example 246, 4-{4-[3-chloro-4-(3-hydroxypropoxy)phenyl]-2-oxopyridin-1(2H)-yl}-N-hydroxy-2-methyl-2-(methylsulfonyl)butanamide]	2 µg/mL	4 µg/mL		
Cc1ccc(-c2ccn(CC[C@](C)(C(=O)NO)S(C)(=O)=O)c(=O)c2)cc1F [Example 322, (2R)-4-[4-(3-fluoro-4-methylphenyl)-2-oxopyridin-1(2H)-yl]-N-hydroxy-2-methyl-2-(methylsulfonyl)butanamide]	0.5 µg/mL	0.5 µg/mL		
C[C@@](CCn1ccc(-c2ccc(Oc3cccnc3C#N)cc2)cc1=O)(C(=O)NO)S(C)(=O)=O [Example 442, (2R)-4-[4-{4-[(2-cyanopyridin-3-yl)oxy]phenyl}-2-oxopyridin-1(2H)-yl]-N-hydroxy-2-methyl-2-(methylsulfonyl)butanamide]	4 µg/mL	4 µg/mL		
CC(CCn1ccc(-c2ccccc2C(F)(F)F)cc1=O)(C(=O)NO)S(C)(=O)=O (stereo not drawn) [Example 183, N-hydroxy-2-methyl-2-(methylsulfonyl)-4-{2-oxo-4-[2-(trifluoromethyl)phenyl]pyridin-1(2H)-yl}butanamide]			32 µg/mL	32 µg/mL
CC(CCn1ccc(-c2ccc(Oc3cccnc3)cc2)cc1=O)(C(=O)NO)S(C)(=O)=O (stereo not drawn) [Example 287, N-hydroxy-2-methyl-2-(methylsulfonyl)-4-{2-oxo-4-[4-(pyridin-3-yloxy)phenyl]pyridin-1(2H)-yl}butanamide]	0.5 µg/mL	4 µg/mL		
CC(C)(C)NC(=O)c1cncc(-c2ccn(CCC(C)(C(=O)NO)S(C)(=O)=O)c(=O)c2)c1 (stereo not drawn) [Example 154, N-tert-butyl-1′-[4-(hydroxyamino)-3-methyl-3-(methylsulfonyl)-4-oxobutyl]-2′-oxo-1′,2′-dihydro-3,4′-bipyridine-5-carboxamide]			> 64 µg/mL	> 64 µg/mL
